Experiment [1] addresses Human KDR (residues 790-1356) (Homo sapiens (Human), UniProt P35968). The experiment is described as follows: Human KDR kinase assay, HTRF KinEase (Example B-2). It is filed as biochemical. Conditions: protocol of Example B-2 (other compounds). Summed up:
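Human KDR residues 790-1356 (0.1 ng/well) in buffer with 5 mM MgCl2, 1 mM MnCl2, 1 mM DTT, biotinylated peptide substrate, ATP at Km (4.0 μM), 3% DMSO, 10 compound concentrations; 40 min, room temperature. EDTA stop, streptavidin-XL665/Eu-TK antibody HTRF read 665/620 nm; 4-parameter IC50.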

In experiment [2] the target is Mer (phospho-Mer, MERTK-transfected 293A cells) (Homo sapiens (Human), UniProt Q12866). The experiment is described as follows: Mer autophosphorylation ELISA in transient transfected 293A cells (Example H). To be noted: cellular activity; Mer autophosphorylation ELISA in transient transfected 293A cells. It is filed as cell-based. The method in brief: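 Human MERTK transiently transfected into 293A cells; compounds as 8-point dose curve in serum-free medium (0.3% DMSO final), 1 h. Lysates assayed by phospho-Mer sandwich ELISA against phospho-Mer standard; DMSO = 100%, reference inhibitor = 0% activity; IC50 from 4-parameter logistic fit.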
Sequence of Mer (phospho-Mer, MERTK-transfected 293A cells) (Q12866 21-999): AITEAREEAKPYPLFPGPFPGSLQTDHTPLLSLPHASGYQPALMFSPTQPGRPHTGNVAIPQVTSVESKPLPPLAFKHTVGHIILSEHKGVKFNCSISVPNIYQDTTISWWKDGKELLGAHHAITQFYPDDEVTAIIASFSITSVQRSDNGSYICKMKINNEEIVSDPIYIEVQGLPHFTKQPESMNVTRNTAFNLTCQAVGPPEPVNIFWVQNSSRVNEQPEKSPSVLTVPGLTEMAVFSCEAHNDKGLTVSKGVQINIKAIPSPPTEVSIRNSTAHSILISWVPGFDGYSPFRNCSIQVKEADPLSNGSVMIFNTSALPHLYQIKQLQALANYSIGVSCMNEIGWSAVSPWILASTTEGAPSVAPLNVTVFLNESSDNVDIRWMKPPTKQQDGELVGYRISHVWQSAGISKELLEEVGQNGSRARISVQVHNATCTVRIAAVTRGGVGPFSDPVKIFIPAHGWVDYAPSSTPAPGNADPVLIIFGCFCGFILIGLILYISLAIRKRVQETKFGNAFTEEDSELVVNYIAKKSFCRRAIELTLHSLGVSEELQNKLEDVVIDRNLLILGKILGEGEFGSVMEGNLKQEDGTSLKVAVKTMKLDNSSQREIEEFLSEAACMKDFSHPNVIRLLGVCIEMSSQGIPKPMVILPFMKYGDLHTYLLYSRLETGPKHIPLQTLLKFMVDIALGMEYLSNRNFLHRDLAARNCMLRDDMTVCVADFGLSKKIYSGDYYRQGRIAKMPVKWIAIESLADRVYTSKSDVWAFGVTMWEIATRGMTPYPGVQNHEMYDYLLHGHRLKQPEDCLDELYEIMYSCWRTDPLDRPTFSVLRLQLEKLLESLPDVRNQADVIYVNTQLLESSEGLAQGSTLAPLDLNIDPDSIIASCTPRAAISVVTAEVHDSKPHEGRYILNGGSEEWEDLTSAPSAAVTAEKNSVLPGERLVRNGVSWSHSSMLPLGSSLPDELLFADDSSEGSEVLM

Experiment [3] addresses Human MER (residues 528-999) (Homo sapiens (Human), UniProt Q12866). Description: Human Mer kinase assay, HTRF KinEase (Example C-2). It is filed as biochemical. Conditions: protocol of Example C-2 (other compounds). The method in brief:
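HTRF KinEase TK assay with MER 528-999 (1 ng/well) in enzymatic buffer plus 5 mM MgCl2 and 1 mM DTT, biotinylated peptide substrate and ATP at Km (40 μM), 3% DMSO final, 60 min at room temperature. Stopped with EDTA detection mix (SA-XL665, TK antibody-Eu3+), read at 665/620 nm after 60 min; IC50 from 10-point 4-parameter fit, normalized to DMSO and 1 μM reference.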
Background: TR-FRET usually uses a lanthanide donor and a delayed reading to cut background.

By IC50 is commonly meant the concentration that inhibits the measured activity by half. The low end stands for greater potency, the high end for weaker potency.

Some results are limits rather than exact numbers.

Sequence of Human KDR (residues 790-1356) (P35968 790-1356): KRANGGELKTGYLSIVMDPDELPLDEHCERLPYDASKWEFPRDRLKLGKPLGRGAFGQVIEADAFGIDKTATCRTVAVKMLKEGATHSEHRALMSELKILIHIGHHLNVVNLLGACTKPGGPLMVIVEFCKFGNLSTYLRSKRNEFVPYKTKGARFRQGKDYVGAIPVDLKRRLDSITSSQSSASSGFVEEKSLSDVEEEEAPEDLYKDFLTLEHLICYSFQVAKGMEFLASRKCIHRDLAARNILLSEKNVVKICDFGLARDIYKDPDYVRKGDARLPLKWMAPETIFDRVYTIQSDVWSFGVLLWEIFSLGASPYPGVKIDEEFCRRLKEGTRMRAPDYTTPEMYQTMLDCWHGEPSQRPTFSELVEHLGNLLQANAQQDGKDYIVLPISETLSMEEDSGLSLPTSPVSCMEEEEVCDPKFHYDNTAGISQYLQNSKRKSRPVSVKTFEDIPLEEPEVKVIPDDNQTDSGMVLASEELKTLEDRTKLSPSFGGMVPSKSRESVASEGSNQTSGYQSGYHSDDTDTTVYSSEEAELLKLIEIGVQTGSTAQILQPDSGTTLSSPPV
Sequence of Human MER (residues 528-999) (Q12866 528-999): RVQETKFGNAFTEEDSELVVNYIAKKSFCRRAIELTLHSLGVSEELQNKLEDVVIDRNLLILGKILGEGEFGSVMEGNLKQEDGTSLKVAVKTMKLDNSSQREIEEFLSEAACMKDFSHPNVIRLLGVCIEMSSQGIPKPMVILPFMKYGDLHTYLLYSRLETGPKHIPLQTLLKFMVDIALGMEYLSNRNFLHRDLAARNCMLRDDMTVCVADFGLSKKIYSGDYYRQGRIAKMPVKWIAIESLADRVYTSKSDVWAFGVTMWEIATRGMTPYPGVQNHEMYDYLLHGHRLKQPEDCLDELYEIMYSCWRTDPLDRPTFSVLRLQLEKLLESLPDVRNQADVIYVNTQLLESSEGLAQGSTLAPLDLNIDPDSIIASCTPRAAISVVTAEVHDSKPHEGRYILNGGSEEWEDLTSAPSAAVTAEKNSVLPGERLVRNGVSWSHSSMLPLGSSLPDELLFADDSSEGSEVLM

Turning to `COc1cnc2c(Oc3ccc(NC(=O)c4c(C)n(C)cc(-c5ccc(F)cc5)c4=O)cc3F)ccnc2c1` [Compound 239, N-[3-Fluoro-4-[(7-methoxy-1,5-naphthyridin-4-yl)oxy]phenyl]-5-(4-fluorophenyl)-1,2-dimethyl-4-oxopyridine-3-carboxamide], the figures for the IC50 in experiment [1], in experiment [2] and in experiment [3] were > 300 nM, < 100 nM and < 100 nM, respectively.
For the molecule `CCn1cc(-c2ccc(F)cc2)c(=O)c(C(=O)Nc2ccc(Oc3ccnc4cc(OC)cnc34)c(F)c2)c1C` [Compound 240, 1-Ethyl-N-[3-fluoro-4-[(7-methoxy-1,5-naphthyridin-4-yl)oxy]phenyl]-5-(4-fluorophenyl)-2-methyl-4-oxopyridine-3-carboxamide], the IC50 in experiment [1] was > 300 nM; in experiment [2], < 100 nM; in experiment [3] it was < 100 nM.
On to `COc1cnc2c(Oc3ccc(NC(=O)c4cnc(C(F)(F)F)c(-c5ccc(F)cc5)c4O)cc3F)ccnc2c1` [Compound 241, N-[3-Fluoro-4-[(7-methoxy-1,5-naphthyridin-4-yl)oxy]phenyl]-5-(4-fluorophenyl)-4-hydroxy-6-(trifluoromethyl)pyridine-3-carboxamide], for which the IC50 is > 300 nM in experiment [1], < 100 nM in experiment [2] and < 100 nM in experiment [3].
In the case of `COc1ccc2nccc(Oc3ccc(NC(=O)c4c(C)ncc(-c5ccc(F)cc5)c4O)cc3F)c2n1` [Compound 242, N-[3-Fluoro-4-[(6-methoxy-1,5-naphthyridin-4-yl)oxy]phenyl]-5-(4-fluorophenyl)-4-hydroxy-2-methylpyridine-3-carboxamide], the IC50 in experiment [1], in experiment [2] and in experiment [3] was < 100 nM in each case.
For the molecule `COc1ccc2nccc(Oc3ccc(NC(=O)c4c(C)n(C)cc(-c5ccc(F)cc5)c4=O)cc3F)c2n1` [Compound 243, N-[3-Fluoro-4-[(6-methoxy-1,5-naphthyridin-4-yl)oxy]phenyl]-5-(4-fluorophenyl)-1,2-dimethyl-4-oxopyridine-3-carboxamide], the half-maximal inhibitory concentration (IC50) was > 300 nM in experiment [1], < 100 nM in experiment [2] and < 100 nM in experiment [3].
`COc1cnc2c(Oc3ccc(NC(=O)c4n[nH]c(C)c(-c5ccc(F)cc5)c4=O)cc3)ccnc2c1` [Compound 245, 5-(4-Fluorophenyl)-N-[4-[(7-methoxy-1,5-naphthyridin-4-yl)oxy]phenyl]-6-methyl-4-oxo-1H-pyridazine-3-carboxamide]: the concentration for half-maximal inhibition (IC50) is 100 to 300 nM in experiment [1], < 100 nM in experiment [2] and < 100 nM in experiment [3].
As for `COc1cnc2c(Oc3ccc(NC(=O)c4n[nH]c(C)c(-c5ccc(F)cc5)c4=O)cc3F)ccnc2c1` [Compound 246, N-[3-Fluoro-4-[(7-methoxy-1,5-naphthyridin-4-yl)oxy]phenyl]-5-(4-fluorophenyl)-6-methyl-4-oxo-1H-pyridazine-3-carboxamide], the half-maximal inhibitory concentration (IC50) in experiment [1], in experiment [2] and in experiment [3] was < 100 nM each time.
With `COc1cc2nccc(Oc3ccc(NC(=O)c4n[nH]c(C)c(-c5ccc(F)cc5C)c4=O)cc3)c2nc1OC` [Compound 247, N-[4-[(6,7-Dimethoxy-1,5-naphthyridin-4-yl)oxy]phenyl]-5-(4-fluoro-2-methylphenyl)-6-methyl-4-oxo-1H-pyridazine-3-carboxamide], the IC50 in experiment [1], in experiment [2] and in experiment [3] was < 100 nM throughout.
As for `COc1cnc2c(Oc3ccc(NC(=O)c4n[nH]c(C)c(-c5ccc(F)cc5C)c4=O)cc3)ccnc2c1` [Compound 248, 5-(4-Fluoro-2-methylphenyl)-N-[4-[(7-methoxy-1,5-naphthyridin-4-yl)oxy]phenyl]-6-methyl-4-oxo-1H-pyridazine-3-carboxamide], the half-maximal inhibitory concentration (IC50) in experiment [1] was > 300 nM; in experiment [2] it was < 100 nM; in experiment [3], < 100 nM.

The values above are taken from patent US12371428B2 (Exelixis, Inc., priority 2019, dated 2025).
